Source: PMC6576746, “Rational discovery of dual-indication multi-target PDE/Kinase inhibitor for precision anti-cancer therapy using structural systems pharmacology” (PLoS Computational Biology, 2019)

Columns and labels:
Assay in all cases: biochemical
Set-up in all cases: DiscoverX KinomeScan competition binding assay across human kinases; per cent of control at 10 and 100 uM
PRKCE = PRKCE (Homo sapiens, UniProt Q02156); details: competition binding, % of control; read-out: Percent Control (100 uM Levosimendan)
Procedure, shortened: (§1)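 KinomeScan competition binding was run across a human kinase panel at 10 μM and 100 μM levosimendan. Results are %control = (test − positive control)/(negative control − positive control) × 100.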

MET = MET (Homo sapiens, UniProt P08581); details: competition binding, % of control; read-out: Percent Control (100 uM Levosimendan)
Procedure, shortened: as §1

MYLK4 = biological target: T1, MYLK4 (Homo sapiens, UniProt Q86YV6); details: competition binding, % of control
T1 sequence (Q86YV6 1-388): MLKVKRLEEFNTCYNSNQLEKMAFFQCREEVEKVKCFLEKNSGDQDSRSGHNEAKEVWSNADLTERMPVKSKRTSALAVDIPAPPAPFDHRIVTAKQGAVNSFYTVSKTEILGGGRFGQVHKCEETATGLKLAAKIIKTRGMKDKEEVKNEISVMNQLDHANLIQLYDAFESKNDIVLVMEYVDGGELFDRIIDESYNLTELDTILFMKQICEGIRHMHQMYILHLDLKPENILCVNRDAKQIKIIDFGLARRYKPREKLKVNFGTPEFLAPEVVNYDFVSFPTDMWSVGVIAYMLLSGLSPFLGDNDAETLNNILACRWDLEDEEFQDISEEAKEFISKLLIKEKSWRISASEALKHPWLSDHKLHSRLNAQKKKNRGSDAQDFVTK
Procedure, shortened: as §1

CSNK2A1 = CSNK2A1 (Homo sapiens, UniProt P68400); details: competition binding, % of control; read-out: Percent Control (100 uM Levosimendan)
Procedure, shortened: as §1

INSR = INSR (Homo sapiens, UniProt P06213); details: competition binding, % of control; read-out: Percent Control (100 uM Levosimendan)
Procedure, shortened: as §1

FRK = FRK (Homo sapiens, UniProt P42685); details: competition binding, % of control; read-out: Percent Control (100 uM Levosimendan)
Procedure, shortened: as §1

VPS34 = biological target: T2, VPS34 (Homo sapiens, UniProt Q8NEB9); details: competition binding, % of control; read-out: Percent Control (100 uM Levosimendan)
T2 construct: gene PIK3C3
Procedure, shortened: as §1

BIKE = biological target: T3, BIKE (Homo sapiens, UniProt Q9NSY1); details: competition binding, % of control
T3 construct: gene BMP2K
Procedure, shortened: as §1

PIK3CA(C420R) = PIK3CA(C420R) (Homo sapiens, UniProt P42336, C420R); details: competition binding, % of control; read-out: Percent Control (100 uM Levosimendan)
Procedure, shortened: as §1

TGFBR1 = TGFBR1 (Homo sapiens, UniProt P36897); details: competition binding, % of control
Procedure, shortened: as §1

CSF1R-autoinhibited = CSF1R-autoinhibited (Homo sapiens, UniProt P07333); details: competition binding, % of control; read-out: Percent Control (100 uM Levosimendan)
Procedure, shortened: as §1

SRC = SRC (Homo sapiens, UniProt P12931); details: competition binding, % of control
Procedure, shortened: as §1

ULK1 = ULK1 (Homo sapiens, UniProt O75385); details: competition binding, % of control; read-out: Percent Control (100 uM Levosimendan)
Procedure, shortened: as §1

NEK6 = NEK6 (Homo sapiens, UniProt Q9HC98); details: competition binding, % of control; read-out: Percent Control (100 uM Levosimendan)
Procedure, shortened: as §1

MYLK = MYLK (Homo sapiens, UniProt Q15746); details: competition binding, % of control
Procedure, shortened: as §1

BMPR2 = BMPR2 (Homo sapiens, UniProt Q13873); details: competition binding, % of control; read-out: Percent Control (100 uM Levosimendan)
Procedure, shortened: as §1

[1] = read-out: Percent Control (10 uM Levosimendan)
[2] = read-out: Percent Control (100 uM Levosimendan)

T3 sequence (Q9NSY1 whole entry): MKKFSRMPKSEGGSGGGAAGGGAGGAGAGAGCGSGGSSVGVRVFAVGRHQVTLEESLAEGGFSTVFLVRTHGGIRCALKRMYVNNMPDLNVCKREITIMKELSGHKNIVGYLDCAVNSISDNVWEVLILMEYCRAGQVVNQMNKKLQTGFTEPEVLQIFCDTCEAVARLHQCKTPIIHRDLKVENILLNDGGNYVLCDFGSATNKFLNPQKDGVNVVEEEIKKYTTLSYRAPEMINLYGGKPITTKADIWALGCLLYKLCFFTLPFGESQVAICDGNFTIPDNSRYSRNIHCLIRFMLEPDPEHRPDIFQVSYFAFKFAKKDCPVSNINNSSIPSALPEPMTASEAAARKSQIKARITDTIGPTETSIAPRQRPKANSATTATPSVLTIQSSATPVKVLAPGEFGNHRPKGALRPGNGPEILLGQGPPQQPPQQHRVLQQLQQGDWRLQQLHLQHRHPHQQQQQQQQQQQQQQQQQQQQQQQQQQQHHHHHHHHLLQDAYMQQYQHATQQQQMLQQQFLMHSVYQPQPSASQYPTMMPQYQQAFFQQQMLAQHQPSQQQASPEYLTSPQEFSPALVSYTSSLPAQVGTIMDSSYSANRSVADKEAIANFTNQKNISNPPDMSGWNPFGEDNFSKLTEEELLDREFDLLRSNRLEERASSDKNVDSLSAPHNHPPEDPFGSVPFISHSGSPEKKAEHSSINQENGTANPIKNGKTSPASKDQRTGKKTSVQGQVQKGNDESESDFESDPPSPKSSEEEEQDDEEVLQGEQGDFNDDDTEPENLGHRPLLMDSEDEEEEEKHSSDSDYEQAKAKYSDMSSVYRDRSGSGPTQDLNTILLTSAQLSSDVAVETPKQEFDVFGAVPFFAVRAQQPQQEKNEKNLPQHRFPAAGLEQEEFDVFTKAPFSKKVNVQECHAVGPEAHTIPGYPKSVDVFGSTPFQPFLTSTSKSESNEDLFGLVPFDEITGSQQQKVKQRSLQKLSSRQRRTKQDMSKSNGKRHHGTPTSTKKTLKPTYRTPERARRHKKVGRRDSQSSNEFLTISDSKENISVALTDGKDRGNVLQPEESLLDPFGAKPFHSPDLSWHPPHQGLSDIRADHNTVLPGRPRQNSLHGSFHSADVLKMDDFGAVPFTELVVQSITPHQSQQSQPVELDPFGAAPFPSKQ
Chain of TGFBR1 (P36897 whole entry): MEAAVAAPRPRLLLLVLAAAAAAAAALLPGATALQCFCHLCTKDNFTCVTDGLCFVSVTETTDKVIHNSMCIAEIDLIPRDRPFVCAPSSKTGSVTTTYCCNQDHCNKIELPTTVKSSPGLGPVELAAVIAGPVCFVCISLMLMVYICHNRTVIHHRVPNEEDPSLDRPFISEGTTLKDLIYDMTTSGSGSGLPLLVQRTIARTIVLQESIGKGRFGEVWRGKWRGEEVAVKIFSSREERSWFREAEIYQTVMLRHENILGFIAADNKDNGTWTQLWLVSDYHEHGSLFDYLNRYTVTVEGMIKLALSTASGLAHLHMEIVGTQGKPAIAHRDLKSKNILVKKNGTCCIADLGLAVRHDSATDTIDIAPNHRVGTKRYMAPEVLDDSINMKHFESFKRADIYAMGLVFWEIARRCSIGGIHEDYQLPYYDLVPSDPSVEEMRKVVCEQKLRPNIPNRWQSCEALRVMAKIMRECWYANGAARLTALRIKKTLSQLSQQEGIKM
Chain of MYLK (Q15746 whole entry): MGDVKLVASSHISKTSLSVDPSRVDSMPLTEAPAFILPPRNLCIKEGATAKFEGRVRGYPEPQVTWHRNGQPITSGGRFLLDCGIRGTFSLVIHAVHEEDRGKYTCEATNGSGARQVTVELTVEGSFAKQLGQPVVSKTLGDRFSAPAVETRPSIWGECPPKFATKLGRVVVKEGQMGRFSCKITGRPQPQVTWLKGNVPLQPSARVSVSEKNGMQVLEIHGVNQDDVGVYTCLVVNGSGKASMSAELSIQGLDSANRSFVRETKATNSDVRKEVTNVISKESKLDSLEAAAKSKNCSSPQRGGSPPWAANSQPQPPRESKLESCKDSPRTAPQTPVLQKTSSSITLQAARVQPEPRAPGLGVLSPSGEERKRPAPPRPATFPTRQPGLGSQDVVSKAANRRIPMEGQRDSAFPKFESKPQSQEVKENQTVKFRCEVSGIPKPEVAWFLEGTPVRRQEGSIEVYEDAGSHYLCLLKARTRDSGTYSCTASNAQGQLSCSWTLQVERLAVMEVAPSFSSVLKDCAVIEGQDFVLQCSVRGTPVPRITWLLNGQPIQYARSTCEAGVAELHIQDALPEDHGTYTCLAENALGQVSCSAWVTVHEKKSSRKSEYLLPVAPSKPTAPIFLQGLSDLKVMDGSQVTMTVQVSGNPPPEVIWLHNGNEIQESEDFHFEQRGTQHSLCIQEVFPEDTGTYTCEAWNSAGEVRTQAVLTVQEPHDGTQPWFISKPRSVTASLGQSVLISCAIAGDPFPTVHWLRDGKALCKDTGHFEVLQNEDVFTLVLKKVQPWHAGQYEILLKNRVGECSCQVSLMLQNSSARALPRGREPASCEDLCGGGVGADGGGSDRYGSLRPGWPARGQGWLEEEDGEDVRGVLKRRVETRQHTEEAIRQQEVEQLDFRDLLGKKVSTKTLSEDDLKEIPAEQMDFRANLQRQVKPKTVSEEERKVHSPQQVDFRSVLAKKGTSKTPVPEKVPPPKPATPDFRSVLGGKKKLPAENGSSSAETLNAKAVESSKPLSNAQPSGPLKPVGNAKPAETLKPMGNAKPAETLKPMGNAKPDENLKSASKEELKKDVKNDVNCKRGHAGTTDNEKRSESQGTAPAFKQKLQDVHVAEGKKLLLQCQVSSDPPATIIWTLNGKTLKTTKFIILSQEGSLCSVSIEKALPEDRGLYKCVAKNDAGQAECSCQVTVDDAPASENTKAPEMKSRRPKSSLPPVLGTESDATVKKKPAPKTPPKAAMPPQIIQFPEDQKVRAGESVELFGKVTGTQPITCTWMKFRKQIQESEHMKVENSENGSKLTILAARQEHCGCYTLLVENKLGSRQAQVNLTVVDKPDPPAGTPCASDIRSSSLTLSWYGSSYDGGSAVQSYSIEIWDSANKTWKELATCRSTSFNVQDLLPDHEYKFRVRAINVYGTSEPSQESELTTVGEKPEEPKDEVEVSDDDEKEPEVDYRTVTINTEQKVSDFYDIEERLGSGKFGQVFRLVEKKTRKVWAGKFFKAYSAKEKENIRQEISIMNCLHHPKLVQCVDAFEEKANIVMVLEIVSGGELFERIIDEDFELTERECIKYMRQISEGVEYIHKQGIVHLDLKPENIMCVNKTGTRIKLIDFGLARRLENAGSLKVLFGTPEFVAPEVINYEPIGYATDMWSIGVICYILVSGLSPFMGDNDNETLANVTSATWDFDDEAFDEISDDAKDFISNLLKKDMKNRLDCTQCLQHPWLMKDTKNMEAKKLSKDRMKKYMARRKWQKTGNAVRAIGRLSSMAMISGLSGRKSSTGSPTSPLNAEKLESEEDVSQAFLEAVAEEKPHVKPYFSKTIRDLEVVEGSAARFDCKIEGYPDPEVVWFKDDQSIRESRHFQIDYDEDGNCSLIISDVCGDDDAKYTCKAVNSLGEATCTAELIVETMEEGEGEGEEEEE
Chain of SRC (P12931 whole entry): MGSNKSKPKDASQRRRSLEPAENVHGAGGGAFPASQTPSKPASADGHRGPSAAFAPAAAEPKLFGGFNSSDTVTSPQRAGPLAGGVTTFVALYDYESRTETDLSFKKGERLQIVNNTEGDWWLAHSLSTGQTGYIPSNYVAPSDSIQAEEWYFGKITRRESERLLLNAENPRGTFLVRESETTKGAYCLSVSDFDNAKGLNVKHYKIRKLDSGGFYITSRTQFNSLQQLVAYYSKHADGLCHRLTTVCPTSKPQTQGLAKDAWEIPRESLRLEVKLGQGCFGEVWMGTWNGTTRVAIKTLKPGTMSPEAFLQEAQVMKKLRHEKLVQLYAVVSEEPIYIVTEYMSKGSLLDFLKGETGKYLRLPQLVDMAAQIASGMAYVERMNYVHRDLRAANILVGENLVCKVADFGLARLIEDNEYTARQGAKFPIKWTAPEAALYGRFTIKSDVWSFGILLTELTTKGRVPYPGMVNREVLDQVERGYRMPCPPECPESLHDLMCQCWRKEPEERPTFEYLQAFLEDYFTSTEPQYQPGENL
Chain of PRKCE (Q02156 whole entry): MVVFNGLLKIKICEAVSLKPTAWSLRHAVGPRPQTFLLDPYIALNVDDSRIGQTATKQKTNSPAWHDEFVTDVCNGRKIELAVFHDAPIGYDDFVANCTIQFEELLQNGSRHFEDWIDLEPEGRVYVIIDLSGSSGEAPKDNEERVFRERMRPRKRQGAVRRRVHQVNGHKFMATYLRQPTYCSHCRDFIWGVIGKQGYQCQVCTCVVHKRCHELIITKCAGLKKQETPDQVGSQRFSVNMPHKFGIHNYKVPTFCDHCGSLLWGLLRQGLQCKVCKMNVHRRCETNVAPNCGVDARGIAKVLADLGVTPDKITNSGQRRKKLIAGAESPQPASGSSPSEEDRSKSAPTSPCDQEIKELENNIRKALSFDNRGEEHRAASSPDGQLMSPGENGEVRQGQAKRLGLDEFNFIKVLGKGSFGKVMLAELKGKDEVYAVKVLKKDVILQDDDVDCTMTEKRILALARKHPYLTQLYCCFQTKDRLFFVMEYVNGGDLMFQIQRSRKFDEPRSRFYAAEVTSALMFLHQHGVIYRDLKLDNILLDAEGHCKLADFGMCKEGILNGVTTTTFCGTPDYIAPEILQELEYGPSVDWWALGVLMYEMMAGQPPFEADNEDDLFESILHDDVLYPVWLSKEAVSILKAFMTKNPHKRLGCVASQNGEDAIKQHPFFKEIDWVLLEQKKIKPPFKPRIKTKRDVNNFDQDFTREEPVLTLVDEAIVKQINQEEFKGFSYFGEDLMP

remaining binding at 100 µM (PRKCE): 100%
remaining binding at 100 µM (MET): 55%
remaining binding at 10 µM (MYLK4; [1]): 85%
remaining binding at 100 µM (MYLK4; [2]): 24%
remaining binding at 100 µM (CSNK2A1): 100%
remaining binding at 100 µM (INSR): 76%
remaining binding at 100 µM (FRK): 100%
remaining binding at 100 µM (VPS34): 100%
remaining binding at 10 µM (BIKE; [1]): 47%
remaining binding at 100 µM (BIKE; [2]): 2.2%
remaining binding at 100 µM (PIK3CA(C420R)): 100%
remaining binding at 10 µM (TGFBR1; [1]): 89%
remaining binding at 100 µM (TGFBR1; [2]): 48%
remaining binding at 100 µM (CSF1R-autoinhibited): 85%
remaining binding at 10 µM (SRC; [1]): 100%
remaining binding at 100 µM (SRC; [2]): 42%
remaining binding at 100 µM (ULK1): 95%
remaining binding at 100 µM (NEK6): 71%
remaining binding at 10 µM (MYLK; [1]): 38%
remaining binding at 100 µM (MYLK; [2]): 32%
remaining binding at 100 µM (BMPR2): 100%
Compound: C[C@@H]1CC(=O)NN=C1c1ccc(NN=C(C#N)C#N)cc1 [levosimendan]
